Laboratory results published in US20190204338A1, “Methods for the Characterisation of Interaction Sites on Target Proteins” (Phylogica Limited, priority 2012, published 2019).

Legend:
Assay type in all cases: cell-based, human
[1] = test system: Srxn1 promoter containing mutated AP1 response elements; test: Control Srxn1 promoter reporter with mutated AP1 response elements; conditions: n=3, p>0.05
Procedure: From this primary screen, we concentrated on the PYC36-like, AP1-inhibitory Phylomers, and selected 14 initial hits. […] Reporter activity/inhibition was calculated by normalizing Firefly activity to Renilla.

[2] = test system: Sulfiredoxin (Srxn1) promoter; test: Srxn1-luciferase reporter assay (PMA-dependent activation); conditions: U2oS cells, normalised to Renilla, n=3, p<0.05
Procedure: From this primary screen, we concentrated on the PYC36-like, AP1-inhibitory Phylomers, and selected 14 initial hits. Of these, 7 (TABLE 2 and FIG. 8) were confirmed to inhibit AP1-luciferase activity in a secondary reporter assay normalised to Renilla luciferase expression (FIG. 2). Briefly, Phylomer DNA of the primary hits was re-prepared from the original clones selected for the mini-library (Endo-Free Maxi-Prep, Qiagen), and 5×10^5 U2oS cells were co-transfected with 800 ng DNA comprising AP1-luciferase or Srxn1-luciferase (Papadia et al., 2008) (Firefly), pRL-TK (Renilla) and Phylomer plasmid. Reporter activity/inhibition was calculated by normalizing Firefly activity to Renilla.
As an additional confirmatory experiment, we asked whether these 6 Phylomers specifically regulated expression of a known AP1 target gene by testing their effect on the Sulfiredoxin (Srxn1) promoter, recently established as an AP1-dependent component of the anti-oxidant response mechanism (Papadia et al., 2008). Of the 6 Phylomers tested, 3 inhibited PMA-dependent activation of this promoter: 6G8, 25C3 and 48E6 (FIG. 3a). Importantly, these Phylomers had no effect upon PMA-induced transcription from a control Srxn1 promoter in which the AP1 response elements had been ablated by mutation (FIG. 3b), confirming that their effect on the Srxn1 promoter is AP1-specific.

AP1-luciferase reporter = test: Primary phenotypic screen: PMA-mediated AP1-driven luciferase reporter in transfected U2oS cells; conditions: U2oS cells co-transfected with Phylomer plasmid, PMA 100 nM, read 24 hours later
Procedure: The mini-library of 3120 individual transfection-ready plasmids was used in a microtitre plate-based transfection assay system (ie, and array-based format) in the U2oS cell line, and the effects of the Phyomers expressed from this mini-library were assessed upon PMA-mediated AP1-driven luciferase reporter expression. The previously identified Phylomer PYC36 ([…] SEQ ID NO: 5)—found by reverse target-based yeast 2-hybrid screening against c-Jun bait, and known to affect AP1-dependent transcription (Mead et al., 2010 J. Neurochem, 112: 258-270)—was used as positive control.
Briefly, in triplicate plates, 1×10^5 U2oS cells were plated overnight and co-transfected with 100 ng of both AP1-luciferase reporter (Stratagene) and either an individual Phylomer construct from the mini-libary, or positive control (pcDNA3.1/PYC36) or vector control (pcDNA3.1/nV5-DEST-GusB). PMA (100 nM) was used to induce AP1-dependent luciferase expression 6 hours post-transfection, and luciferase activity was measured 24 hours later (SteadlyGlo, Promega).

PMA-dependent activation of the Srxn1 promoter (Srxn1-luciferase activity) [2] | Substance | PMA-induced transcription from control Srxn1 promoter with AP1 response elements ablated by mutation [1] | AP1-dependent luciferase activity (transcription) (AP1-luciferase reporter)
inhibited | 6G8: AP1-inhibitory Phylomer RAEKCGKLF (SEQ ID NO: 10) (Protein fragment of unknown organism) [Phylomer 6G8] | no effect | 
inhibited | 48E6: AP1-inhibitory Phylomer HSDRTADI (SEQ ID NO: 18) (Protein fragment of unknown organism) [Phylomer 48E6] | no effect | 
significant inhibition | PYC36: previously identified Phylomer GLQGRRRQGYQSIKP (SEQ ID NO: 5), positive control known to affect AP1-dependent transcription (Protein fragment of unknown organism) [reference compound] |  | inhibited transcription
